Like-named read-outs stand apart in the source and are kept apart here.
Columns and labels:
adenosine A1 receptor = molecular target: T1, adenosine A1 receptor (Rattus norvegicus, UniProt P25099); assay: Adenosine Receptor Binding - A1 Receptor Affinity (RBA1), [3H]-N6-cyclohexyladenosine displacement; settings: [3H]-CHA 1.0 nM, rat brain membranes, 25° C., one hour; read-out: RBA-1, IC50 for adenosine A1 receptor affinity
T1 construct: Whole brain minus cerebellum and brainstem from male Long Evans rats; from tissue; host or cells: whole brain minus cerebellum and brainstem, male Long Evans rats (membranes)
T1 sequence (P25099 1-326): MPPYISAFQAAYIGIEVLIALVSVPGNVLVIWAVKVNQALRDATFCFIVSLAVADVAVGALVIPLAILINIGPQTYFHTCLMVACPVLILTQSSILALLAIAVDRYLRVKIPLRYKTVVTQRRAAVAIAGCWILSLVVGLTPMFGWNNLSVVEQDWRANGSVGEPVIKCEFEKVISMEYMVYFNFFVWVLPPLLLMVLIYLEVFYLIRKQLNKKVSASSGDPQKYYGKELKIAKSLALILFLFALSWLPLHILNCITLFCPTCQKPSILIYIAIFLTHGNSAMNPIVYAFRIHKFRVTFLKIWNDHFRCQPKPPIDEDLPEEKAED
Protocol: Whole brain minus cerebellum and brainstem from male Long Evans rats (150-200 g) was homogenized in 30 volumes of ice-cold 0.05M Tris-HCl buffer pH 7.7 using a Brinkman Polytron PT-10, (setting number 6 for 20 seconds) and centrifuged for ten minutes at 20,000×g (Sorvall RC-2), 4° C. The supernatant was discarded, and the pellet was resuspended and centrifuged as before. […] The homogenate was again centrifuged, and the final pellet was resuspended in ice-cold 0.05 M Tris-HCl buffer pH 7.7 to a concentration of 20 mg/ml original wet tissue weight and used immediately. […] Incubation volume was 2 ml. […] The filters were rinsed three times with 5 ml of ice cold 0.05 M Tris-HCl buffer pH 7.7. The radio-labeled ligand retained on the filter was measured by liquid scintillation spectrophotometry after shaking the filters for one hour or longer on a mechanical shaker in 10 ml of Beckman Ready-Solv HP scintillation cocktail. […] The Hill coefficient was calculated by linear regression of the line obtained by plotting the log of the bound radioligand vs the log of the [formula] The maximal number of binding sites (Bmax) was calculated from the Scatchard plot.

[1] = test system: pentobarbital-anesthetized dog; assay: In Vivo Myocardial Inotropic Activity in Anesthetized Dog (CVAD); design: species or system dog (adult mongrel); settings: for change in vivo at 0.1 mg/kg / change in vivo at 0.31 mg/kg / change in vivo at 1 mg/kg / change in vivo at 3.1 mg/kg / change in vivo at 10 mg/kg / change in vivo at 0.3 mg/kg: Canis lupus familiaris, iv; for change in vivo at 0.31 mg/kg: 0.31 mg/kg IV; for change in vivo at 1 mg/kg: 1.00 mg/kg IV; for change in vivo at 3.1 mg/kg: 3.10 mg/kg IV; for change in vivo at 10 mg/kg: 10.00 mg/kg IV; for change in vivo at 0.3 mg/kg: 0.30 mg/kg IV
Protocol: This test procedure is described in the following paragraphs.
This screen consists of determining the effects of increasing intravenous doses of compound on mycardial contractility (dP/dt max of left ventricular blood pressure), heart rate, and aortic blood pressure of the pentobarbital-anesthetized dog.
Adult mongrel dogs of either sex are anesthetized with pentobarbital, 35 mg/kg, IV, and are subsequently maintained under anesthesia with a continuous infusion of pentobarbital, 3.5 mg/kg/hour. The trachea is intubated but the animals are permitted to breathe spontaneously. A cannula is inserted into the femoral vein for administrating test agents. A Millar catheter tip pressure transducer or a fluid filled catheter is inserted into the ascending aorta via the femoral artery for measuring aortic blood pressure. A Millar catheter tip pressure transducer is passed into the left ventricle via the left carotid artery for measuring left ventricular blood pressure. Needle electrodes are placed subcutaneously for recording a lead II electrocardiogram (ECG).
Left ventricular and aortic blood pressures are recorded on a strip chart recorder. Heart rate, using a biotachometer triggered from the R wave of the ECG, and the first derivative of left ventricular blood pressure (dP/dt), obtained with a differentiator amplifier coupled to the corresponding pressure amplifier, are also recorded. A period of at least 30 minutes is utilized to obtain control data prior to administration of test compound.
Ethanol or dimethylacetamide can be used as solvents if adequate dilutions can be made. Appropriate vehicle controls are administered when needed.
Each dose of the test compound is administered in a volume of […] over a period of one minute.

Type 3 Phosphodiesterase = assay: Phosphodiesterase (PDE) Inhibition, Type 3 Phosphodiesterase; type: biochemical, bovine (coronary arteries); settings: Type 3 PDE, at 10^-5 M, substrate 3H-cAMP 1.0 μM
Source text: (§1) The method of Thompson, et al (Thompson, W. J., Terasaki, W. L., Epstein, P. M., Strada, S. J., Adv. Cyclic Nucleotide Res., 10:69-92, 1979), with minor modifications, was used to isolate phosphodiesterases from vascular smooth muscle. Bovine coronary arteries (right, anterior descending, and left circumflex arteries) from hearts obtained from a local slaughterhouse were used for these studies. Arteries from two hearts were used for each isolation. Hearts were kept on ice and the arteries were dissected within two hours after the animals were sacrificed. After removing all fat and connective tissue, the arteries were everted, cut into cubes with a single edge razor blade and homogenized with a Brinkman Polytron three times at a rheostat setting of 10.0 in four volumes of the PDE isolation buffer (10 mM Tris-HCl/pH 7.5, 2 mM MgCl2, and 1 mM dithiothreitol). The resulting homogenate was sonicated (30 sec/ml homogenate) and then centrifuged at 30,000 xg for 20 minutes. This and all subsequent procedures were performed at 4° C. The resulting supernatant was filtered through four layers of gauze, and applied to a DEAE-cellulose column (30×1.5 cm), prepared as described by Cheung (Cheung, W. Y., Biochim. Biophys. Acta, 191:303-315, 1969), and equilibrated with freshly prepared 70 mM sodium acetate/5 mM 2-mercaptoethanol (pH 6.5). The column was then washed with 2-3 bed volumes of sodium acetate/2-mercaptoethanol, after which the phosphodiesterases were eluted from the column using a continuous 70-1,000 mM sodium acetate gradient (pH 6.5, containing 5 mM 2-mercaptoethanol; total volume 400 ml). The flow rate was approximately equal to 25 ml/hr. Eight ml fractions were collected and assayed for cyclic AMP- and cyclic GMP-phosphodiesterase activity in the presence and absence of 0.1 units of calmodulin and 10 mM CaCl2. Appropriate fractions were pooled and dialyzed against 70 mM sodium acetate/5 mM 2-mercaptoethanol for 20 hours.
(§2) Following complete separation, the combined phosphodiesterase fractions were concentrated to 14% of the original volume using an Amicon ultrafiltration cell fitted with a UM-10 membrane, according to the method of Wells, et al (Wells, J. N., Baird, C. E., Wu, Y. J., Hardman, J. G., Biochim. Biophys. Acta, 384:430-442, 1975). Following concentration, the protein was then diluted to 65% with ethylene glycol monoethyl ether, and stored at -20° C.
(§3) Phosphodiesterase activity was measured as described previously (Weishaar, P. E., Quade, M., Boyd, D., Schenden, J., Mark, S. S., Kaplan, H. R., Drug Devel. Res., 3:517-534, 1983), in a reaction medium containing 40 mM Tris-HCl (pH 8.0), 5 mM MgCl and 4 mM 2-mercaptoethanol. Unless otherwise noted, the concentration of substrate (^3 H-cyclic AMP or ^3 H-cyclic GMP) was 1.0 μM. All agents examined were dissolved in dimethyl sulfoxide (DMSO). Final concentration of the reaction medium was either 2.5% (cardiac and platelet studies) or 1.25% (smooth muscle studies). This concentration of DMSO produced an approximately 10% inhibition of enzyme activity.

Type 1 Phosphodiesterase = assay: Phosphodiesterase (PDE) Inhibition, Type 1 Phosphodiesterase; type: biochemical, bovine (coronary arteries); settings: Type 1 PDE, at 10^-5 M; for % Inhibition of hydrolysis of 3H-cAMP: substrate 3H-cAMP 1.0 μM; for % Inhibition of hydrolysis of 3H-cGMP: substrate 3H-cGMP 1.0 μM
Source text: as §1, §2, §3

[2] = 0.10 mg/kg IV, read-out: Percent Change Heart Rate
[3] = 0.10 mg/kg IV, read-out: Percent Change Myocardial Contractility
[4] = read-out: Percent Change Heart Rate
[5] = read-out: Percent Change Myocardial Contractility
[6] = intravenously at about 0.01 to 0.31 mg/kg
[7] = 0.10 mg/kg IV, read-out: Percent Change Blood Pressure
[8] = read-out: Percent Change Blood Pressure

| Structure (SMILES) | IC50 (adenosine A1 receptor) | % Inhibition of hydrolysis of 3H-cAMP (Type 3 Phosphodiesterase) | % Inhibition of hydrolysis of 3H-cAMP (Type 1 Phosphodiesterase) | % Inhibition of hydrolysis of 3H-cGMP (Type 1 Phosphodiesterase) | change in vivo at 0.1 mg/kg [1, 2] | change in vivo at 0.1 mg/kg [1, 3] | change in vivo at 0.31 mg/kg [1, 4] | change in vivo at 0.31 mg/kg [1, 5] | change in vivo at 1 mg/kg [1, 4] | change in vivo at 1 mg/kg [1, 5] | change in vivo at 3.1 mg/kg [1, 4] | change in vivo at 3.1 mg/kg [1, 5] | change in vivo at 0.1 mg/kg [1, 7] | other results |
| --- | --- | --- | --- | --- | --- | --- | --- | --- | --- | --- | --- | --- | --- | --- |
| Cc1nn(C)c2c(=O)[nH]c(Cc3ccccc3)nc12 [Example 1, 1,3-Dimethyl-5-benzylpyrazolo[4,3-d]pyrimidine-7-one] | 13100 nM | 23% | 80% | 71% | 2% | 8% | 3% | 12% | 6% | 23% | 14% | 42% | – | change in vivo at 10 mg/kg [1, 4]: 38%; change in vivo at 10 mg/kg [1, 5]: 95%; blood pressure (in words) [1, 6]: a moderate reduction in blood pressure; cardiac contractility (in words) [1, 6]: dose related significant increases in cardiac contractility; heart rate (in words) [1, 6]: only low or minimal changes in heart rate |
| Cc1nn(C)c2c(=O)[nH]c(-c3ccncc3)nc12 [Example 2, 1,3-Dimethyl-5-(4-pyridyl)-pyrazolo[4,3-d]pyrimidine-7-one] | 953 nM | 20% | 5% | 13% | 1% | 4% | 1% | 7% | 28% | 53% | 49% | 121% | 0% | – |
| CCn1nc(C)c2nc(-c3ccncc3)[nH]c(=O)c21 [Example 3, 1-Ethyl-3-methyl-5-(4-pyridyl)pyrazolo[4,3-d]pyrimidine-7-one] | 237 nM | 55% | 33% | 19% | 4% | 12% | – | – | -1% | 47% | 16% | 91% | 2% | change in vivo at 0.3 mg/kg [1, 8]: 2%; change in vivo at 0.3 mg/kg [1, 4]: 7%; change in vivo at 0.3 mg/kg [1, 5]: 20%; change in vivo at 1 mg/kg [1, 8]: 2%; change in vivo at 3.1 mg/kg [1, 8]: 8% |

More lines, main results first:

| IC50 (adenosine A1 receptor) | % Inhibition of hydrolysis of 3H-cAMP (Type 3 Phosphodiesterase) | % Inhibition of hydrolysis of 3H-cAMP (Type 1 Phosphodiesterase) | % Inhibition of hydrolysis of 3H-cGMP (Type 1 Phosphodiesterase) | Structure (SMILES) | change in vivo at 0.1 mg/kg [1, 2] | change in vivo at 0.1 mg/kg [1, 3] | change in vivo at 0.31 mg/kg [1, 4] | change in vivo at 0.31 mg/kg [1, 5] | change in vivo at 1 mg/kg [1, 4] | change in vivo at 1 mg/kg [1, 5] | change in vivo at 3.1 mg/kg [1, 4] | change in vivo at 3.1 mg/kg [1, 5] | change in vivo at 0.1 mg/kg [1, 7] | other results |
| --- | --- | --- | --- | --- | --- | --- | --- | --- | --- | --- | --- | --- | --- | --- |
| 3090 nM | 3% | 6% | 4% | Cc1nn(C)c2c(=O)[nH]c(-c3cccnc3)nc12 [Example 4, 1,3-Dimethyl-5-(3-pyridyl)pyrazolo[4,3-d]pyrimidine-7-one] | 0% | 2% | 1% | 7% | 4% | 27% | 9% | 55% | – | Percent Change Blood Pressure ([1]; 0.10 mg/kg IV): 0/0 |
| 670 nM | 56% | 29% | 29% | CCn1nc(C)c2nc(-c3ccccc3)[nH]c(=O)c21 [Example 5, 1-Ethyl-3-methyl-5-phenylpyrazolo[4,3-d]pyrimidine-7-one] | 7% | 10% | – | – | 43% | 77% | 50% | 100% | 2% | change in vivo at 1 mg/kg [1, 8]: 1%; change in vivo at 3.1 mg/kg [1, 8]: 1% |
| 1020 nM | 35% | 6% | 14% | Cc1nn(C)c2c(=O)[nH]c(-c3ccccc3)nc12 [Example 6, 1,3-Dimethyl-5-phenylpyrazolo[4,3-d]pyrimidine-7-one] | -1% | 4% | -4% | 3% | 7% | 20% | 37% | 45% | – | – |
| 314 nM | 5% | 16% | 12% | Cc1nn(C)c2c(=O)[nH]c(-c3ccc(Cl)cc3N)nc12 [Example 19, 1,3-Dimethyl-5-(2-amino-4-chlorophenyl)pyrazolo[4,3-d]pyrimidine-7-one] | – | – | – | – | – | – | – | – | – | – |

— patent US4666908A, “5-Substituted pyrazolo[4,3-d]pyrimidine-7-ones and methods of use” (Warner-Lambert Company, priority 1985, dated 1987)
